Read-outs that look alike come from different tables or passages of the source.
Legend:
adjuvant arthritis [1] = conditions: background statement; cited from earlier work
Arthus reaction [2] = conditions: background statement; cited from earlier work
adjuvant arthritis [3] = assay: Rat-Adjuvant Arthritis Test; assay type: in vivo, male Sprague-Dawley rats; conditions: for minimal effective dose: Rattus norvegicus, po, orally once a day for 5 days (day 15 to 19), lowest dose with significant reduction (p<0.001) of foot volume, read-out: Minimum Effective Dose Adjuvant Arthritis; for effect in rat adjuvant arthritis test, in words: in vivo
Description: Rat adjuvant arthritis test is one of a few and most useful pharmacological model for the investigation of human […] inflammation. It is known that the effective compounds to this model system are useful for treatment of rheumatoid arthritis, such as steroids or non-steroidal anti-inflammatory drugs (Oyo Yakuri, 5, 169 (1971).
According to the method of Winter et al., Arth. Rheum., 9, 394 (1966), male Sprague-Dawley rats, 6 weeks of age, were given subplantar injection of the adjuvant consisting of 1 mg of killed Mycobacterium butyricum (Difco) and 0.2 ml of liquid paraffin. Fourteen days after, the rats with established arthritis were treated by the drug as follows: the test compound was suspended in 5% gum arabic solution and orally given once a day for 5 days, day 15 to day 19. Control rats were given gum arabic in the same way. On day 19, the volume of right foot was determined with a plethusometer. The lowest dose which gave significant reduction (p<0.001)of the foot volume from that of the control group was regarded as a minimum effective dose (MED).

5-lipoxygenase = target: T1, 5-lipoxygenase (Cavia porcellus, UniProt A0A286X958); assay: 5-Lypoxygenase Inhibitory Test; assay type: cell-based, Hartley guinea pigs; conditions: PMNs from guinea pigs, A23187 stimulated, [14C] arachidonic acid; Inhibition (%) classes
T1 construct: polymorphonuclear leukocytes (PMNs) from Hartley guinea pigs; endogenous in cells; host or cells: casein-elicited peritoneal polymorphonuclear leukocytes of Hartley guinea pigs (intact cells)
T1 sequence (A0A286X958 1-674): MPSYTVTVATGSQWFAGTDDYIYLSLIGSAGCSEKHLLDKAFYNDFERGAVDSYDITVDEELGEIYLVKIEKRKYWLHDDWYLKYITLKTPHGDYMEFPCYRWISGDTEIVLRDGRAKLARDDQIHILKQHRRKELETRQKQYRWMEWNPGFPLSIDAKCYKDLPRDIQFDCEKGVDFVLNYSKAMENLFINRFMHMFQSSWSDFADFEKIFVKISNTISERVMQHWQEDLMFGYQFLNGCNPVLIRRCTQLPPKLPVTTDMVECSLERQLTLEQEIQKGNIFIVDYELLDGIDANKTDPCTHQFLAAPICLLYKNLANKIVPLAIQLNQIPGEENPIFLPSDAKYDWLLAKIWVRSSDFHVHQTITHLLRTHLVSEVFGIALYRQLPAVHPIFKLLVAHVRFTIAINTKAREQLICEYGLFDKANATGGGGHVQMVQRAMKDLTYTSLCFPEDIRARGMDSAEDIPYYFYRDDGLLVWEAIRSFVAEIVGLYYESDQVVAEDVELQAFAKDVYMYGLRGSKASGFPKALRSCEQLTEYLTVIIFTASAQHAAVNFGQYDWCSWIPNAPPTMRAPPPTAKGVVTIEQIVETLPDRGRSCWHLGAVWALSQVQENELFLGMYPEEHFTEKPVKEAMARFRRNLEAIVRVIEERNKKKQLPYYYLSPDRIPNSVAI
Procedure: According to the method of Harvey et al., J. Pharmacol. Meth., 9, 147-155 (1983), polymorphonuclear leukocytes (PMNs) from Hartley guinea pigs weighting 280 to 350 g were elicited by intraperit oneal injection of 2% casein suspension (10 ml/100 g guiner pig weight), and collected 16-18 hrs later. The cells were washed with saline and finally suspended at 2.39×10^7 cells/ml in Krebs Ringer Bicarbonate buffer (KBR) pH 7.4.
935 μl of PMNs were aliquoted into 15 ml glass tubes and prewarmed to 37° C. in a shaking water bath. Drugs (10 μl of dimethylsulfoxide (DMSO)) were added 10 minutes prior to the addition of 1-^14 C-arachidonic acid (New England Neuclear Co.; 50 μl of 2 μCi/mlKBR) and calciumionophor, A23187 (Calbiochem Boehring Co.; 5 μl of 1 mg/mlDMSO). The reaction was terminated after a further 10 min by the addition of 0.2M citric acid (100 μl). Unstimulated controls were also included to determine the increased metabolism of arachidonic acid due to A23187. Samples were diluted with water (4 ml) and extracted twice with ethyl acetate (5 ml). The ethyl acetate was concentrated under a stream of nitrogen and two-thirds of the residue was applied to TLC plates. The plates were developed in toluene:dioxane:acetic acid=65:34:1.5at 10° C.
Radiochromatographic analysis of the labelled metabolites of [^14 C] arachidonic acid utilized a Berthold LB283 TLC Linear Analyzer. In samples and controls, a ratio of radioactivity of 5-HETE in metabolites to all of metabolites of [^14 C] arachidonic acid was calculated, and results were determined as percent inhibition calculated from those retios.

Arthus reaction [4] = assay: Mice-Arthus Test; assay type: in vivo, male BABL/c mice; conditions: for minimal effective dose: Mus musculus, 3 h, orally 24 hr and 1 hr before the challenge, read-out: Minimum Effective Dose Arthus
Procedure: The activity of effect for rheumatoid arthritis may be estimated by effect for Arthus reaction. […] Two weeks later, mice were boosted by the i.v. injection of 8×10^7 SRBC and 5 day later the animals were challenged by the subcutaneous injection of 1×10^8 SRBC in 25 μl of PBS into the right hind footpad. The thickness of the SRBC-injection right hind paw and contralateral left hind paw were measured with micrometer 3 hr after the challenge. The difference between these two measurements is regarded as the oedema due to the Arthus reaction. Percentage inhibition of the reaction was determined by comparison with the positive control group. The test compounds were administered orally 24 hr and 1 hr before the challenge.

[5] = background statement, clinical use, cited from earlier work

Row | Activity of Inhibition (5-lipoxygenase) (5-lipoxygenase) | SMILES | effect in adjuvant arthritis test, in words (adjuvant arthritis [1]) | effect in Arthus reaction, in words (Arthus reaction [2]) | minimal effective dose (adjuvant arthritis [3]) [mg/kg] | minimal effective dose (Arthus reaction [4]) [mg/kg] | also measured
1 | – | c1ccc(CCNc2nc(-c3ccccc3)cs2)cc1 [fanetizole, 2-phenethylamino-4-phenylthiazole] | non-effective | effective | – | – | –
2 | ++ (40-70%) | CC(c1ccc(-c2ccccc2)c(F)c1)c1nc(N)no1 (stereo not drawn) [Example 21, 3-amino-5-(1-(2-fluoro-4-biphenylyl)ethyl)-1,2,4-oxadiazole] | – | – | 2.5 | 10 | –
3 | – | c1ccc([C@H]2CN3CCSC3=N2)cc1 [levamizole] | non-effective | effective | – | 50 | Adjuvant Arthritis (result in words) (adjuvant arthritis [3]; at 50 mg/kg): non-effective; effect in rat adjuvant arthritis test, in words (adjuvant arthritis [3]): non-effective; side effects [5]: serious side effects; side effects ([5]; listed as Levamizole): many severe side-effects
4 | – | CC(C)(S)[C@@H](N)C(=O)O [D-Penicillamine] | non-effective | non-effective | – | – | Adjuvant Arthritis (result in words) (adjuvant arthritis [3]; at 200 mg/kg): non-effective; effect in rat adjuvant arthritis test, in words (adjuvant arthritis [3]): non-effective; effect in mice Arthus reaction test, in words (Arthus reaction [4]; mouse, in vivo): non-effective
5 | – | CNc1nc(C(C)c2ccc(-c3ccccc3)c(F)c2)cs1 (stereo not drawn) [Example 2, 4-[1-(2-fluoro-4-biphenylyl)ethyl]-2-methylaminothiazole] | – | – | 25 | 10 | –
6 | +++ (70%<) | CC(c1cccc(C(=NO)c2ccccc2)c1)c1nc(N)no1 (stereo not drawn) [Example 65] | – | – | – | – | –
7 | – | CC(c1cccc(C(=O)c2ccccc2)c1)c1nc(N(C)C)no1 (stereo not drawn) [Example 11, 3-dimethylamino-5-(1-(3-benzoylphenyl)ethyl)-1,2,4-oxadiazole] | – | – | 2.5 | 10 | –
8 | – | O=C(Nc1nc(-c2ccccc2)cs1)OCC(Cl)(Cl)Cl [lotifazole, 4-phenyl-2-(2',2',2'-trichloroethoxycarboxamido)thiazole] | non-effective | effective | – | – | –
9 | +++ (70%<) | CN(C)c1noc(Cc2cccc(C(=NO)c3ccccc3)c2)n1 [Example 67] | – | – | 10 | 50 | –
10 | – | CC(c1ccc(-c2ccccc2)c(F)c1)c1coc(N)n1 (stereo not drawn) [Example 7, 2-Amino-4-(1-(2-fluoro-4-biphenylyl)ethyl)oxazole] | – | – | 10 | 10 | –
11 | – | CC(c1ccc(-c2ccccc2)c(F)c1)c1csc(N(C)C)n1 (stereo not drawn) [Example 48, 4-(1-(2-fluoro-4-biphenylyl)ethyl)-2-dimethylaminothiazole] | – | – | 10 | 50 | –
12 | +++ (70%<) | CC(c1cccc(C(=O)c2ccccc2)c1)c1nc(N)no1 (stereo not drawn) [Example 22] | – | – | 2.5 | 50 | –
13 | – | CC(c1cccc(C(=O)c2ccccc2)c1)c1cc(N)on1 (stereo not drawn) [Example 74] | – | – | 2.5 | 50 | –

Source: patent publication US5066666A, “Aminoazole derivatives and their production and use” (Sumitomo Pharmaceuticals Company, Limited, priority 1986, dated 1991)
